The source of these data is patent US20260327221A1, “INHIBITORS OF CYCLIC GMP-AMP SYNTHASE AND USES THEREOF” (Ventus Therapeutics U.S., Inc., priority 2023, published 2026).

For orientation: IC50 means the point on the concentration scale where inhibition reaches its midpoint.

In the experiment the target is hcGAS (Homo sapiens, UniProt Q8N884). Briefly: hcGAS LCMS assay (direct measurement of cGAMP production by LC/MS). Format: biochemical. As to conditions: 4 h incubation with enzyme and substrates; cGAMP production by LC/MS; class symbols; read-out: hcGAS LCMS IC50. In outline: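 Enzyme, substrates (ATP, GTP) and compound incubated 4 h, then quenched with acetonitrile/water containing 0.15 uM 13C/15N-labeled cGAMP internal standard. cGAMP formed quantified directly by LC/MS on HILIC amide column; IC50 values reported in potency bins.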
hcGAS, sequence (Q8N884 whole entry): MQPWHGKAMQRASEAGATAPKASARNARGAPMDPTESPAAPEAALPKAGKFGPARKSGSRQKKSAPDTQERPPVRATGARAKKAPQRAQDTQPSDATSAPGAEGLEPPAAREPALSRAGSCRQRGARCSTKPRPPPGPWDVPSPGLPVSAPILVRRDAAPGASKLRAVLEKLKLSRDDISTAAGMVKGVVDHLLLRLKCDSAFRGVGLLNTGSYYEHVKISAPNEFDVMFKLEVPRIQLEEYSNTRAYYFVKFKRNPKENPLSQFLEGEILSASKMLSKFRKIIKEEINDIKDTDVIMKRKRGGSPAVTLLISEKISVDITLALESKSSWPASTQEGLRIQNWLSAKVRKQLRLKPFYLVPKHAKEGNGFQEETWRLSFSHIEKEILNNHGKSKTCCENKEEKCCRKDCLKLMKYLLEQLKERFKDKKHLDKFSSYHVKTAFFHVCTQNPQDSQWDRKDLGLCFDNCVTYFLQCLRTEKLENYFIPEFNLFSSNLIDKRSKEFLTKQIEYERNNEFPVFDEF
As for `COCCOc1c(-c2c(C#N)cccc2OC)cc(C(=O)Nc2nnc(-n3nccc3C(F)F)s2)oc1=O` [Compound 23, 4-(2-cyano-6-methoxyphenyl)-N-(5-(5-(difluoromethyl)-1H-pyrazol-1-yl)-1,3,4-thiadiazol-2-yl)-3-(2-methoxyethoxy)-2-oxo-2H-pyran-6-carboxamide], the IC50 was in the range of 0.5 to 1 nM.
The figure for `COc1cccc(C#N)c1-c1cc(C(=O)Nc2nnc(-n3nccc3Cl)s2)oc(=O)c1OCCO` [Compound 26, N-(5-(5-chloro-1H-pyrazol-1-yl)-1,3,4-thiadiazol-2-yl)-4-(2-cyano-6-methoxyphenyl)-3-(2-hydroxyethoxy)-2-oxo-2H-pyran-6-carboxamide] is less than 0.5 nM; for `COCCOc1cccc(OC)c1-c1cc(C(=O)Nc2nnc(-n3nccc3N)s2)oc(=O)c1OCCOC` [Compound 27, N-(5-(5-amino-1H-pyrazol-1-yl)-1,3,4-thiadiazol-2-yl)-4-(2-methoxy-6-(2-methoxyethoxy)phenyl)-3-(2-methoxyethoxy)-2-oxo-2H-pyran-6-carboxamide] it is 1 to 5 nM; for `COCCOc1c(-c2c(OC)cncc2OC)cc(C(=O)Nc2nnc(-n3nccc3N)s2)oc1=O` [Compound 28, N-(5-(5-amino-1H-pyrazol-1-yl)-1,3,4-thiadiazol-2-yl)-4-(3,5-dimethoxypyridin-4-yl)-3-(2-methoxyethoxy)-2-oxo-2H-pyran-6-carboxamide] it is 1 to 5 nM.
In the case of `COCC(C)(C)COc1c(-c2ncccc2OC)cc(C(=O)Nc2nnc(-n3nccc3N)s2)oc1=O` [Compound 29, N-(5-(5-amino-1H-pyrazol-1-yl)-1,3,4-thiadiazol-2-yl)-3-(3-methoxy-2,2-dimethylpropoxy)-4-(3-methoxypyridin-2-yl)-2-oxo-2H-pyran-6-carboxamide], the IC50 was 1 to 5 nM.
The result for `COCCOCCOc1c(-c2c(OC)cccc2OC)cc(C(=O)Nc2nnc(-n3nccc3N)s2)oc1=O` [Compound 30, N-(5-(5-amino-1H-pyrazol-1-yl)-1,3,4-thiadiazol-2-yl)-4-(2,6-dimethoxyphenyl)-3-(2-(2-methoxyethoxy)ethoxy)-2-oxo-2H-pyran-6-carboxamide] reads 0.5 to 1 nM; that for `COc1c(-c2nn(C)cc2C#N)cc(C(=O)Nc2nnc(-n3nccc3C)s2)oc1=O` [Compound 31, 4-(4-cyano-1-methyl-1H-pyrazol-3-yl)-3-methoxy-N-(5-(5-methyl-1H-pyrazol-1-yl)-1,3,4-thiadiazol-2-yl)-2-oxo-2H-pyran-6-carboxamide], 5 to 20 nM; that for `COCCOc1c(-c2c(CC#N)cccc2OC)cc(C(=O)Nc2nnc(-n3nccc3N)s2)oc1=O` [Compound 32, N-(5-(5-amino-1H-pyrazol-1-yl)-1,3,4-thiadiazol-2-yl)-4-(2-(cyanomethyl)-6-methoxyphenyl)-3-(2-methoxyethoxy)-2-oxo-2H-pyran-6-carboxamide], 1 to 5 nM.
For the compound `COc1cccnc1-c1cc(C(=O)Nc2nnc(-n3nccc3N)s2)oc(=O)c1OCC(C)(C)CO` [Compound 33, N-(5-(5-amino-1H-pyrazol-1-yl)-1,3,4-thiadiazol-2-yl)-3-(3-hydroxy-2,2-dimethylpropoxy)-4-(3-methoxypyridin-2-yl)-2-oxo-2H-pyran-6-carboxamide], the IC50 lay in the range of 1 to 5 nM.
For `COc1cccc(OC)c1-c1cc(C(=O)Nc2nnc(-n3nccc3N)s2)oc(=O)c1OCC(C)(C)CO` [Compound 36, N-(5-(5-amino-1H-pyrazol-1-yl)-1,3,4-thiadiazol-2-yl)-4-(2,6-dimethoxyphenyl)-3-(3-hydroxy-2,2-dimethylpropoxy)-2-oxo-2H-pyran-6-carboxamide], the IC50 lay within 0.5 to 1 nM.
As to `COCCOc1c(-c2c(C#N)cccc2COC)cc(C(=O)Nc2nnc(-n3nccc3N)s2)oc1=O` [Compound 39, N-(5-(5-amino-1H-pyrazol-1-yl)-1,3,4-thiadiazol-2-yl)-4-(2-cyano-6-(methoxymethyl)phenyl)-3-(2-methoxyethoxy)-2-oxo-2H-pyran-6-carboxamide], the IC50 is 1 to 5 nM.
